{
  "source": "patent US9751854B2",
  "about": "(Millennium Pharmaceuticals, Inc., priority 2014, dated 2017)",
  "note": "pIC50: −log10 of the molar value.",
  "data": [
    {"target": "human VPS34 (Homo sapiens (Human), UniProt Q8NEB9)", "sequence (Q8NEB9 whole entry)": "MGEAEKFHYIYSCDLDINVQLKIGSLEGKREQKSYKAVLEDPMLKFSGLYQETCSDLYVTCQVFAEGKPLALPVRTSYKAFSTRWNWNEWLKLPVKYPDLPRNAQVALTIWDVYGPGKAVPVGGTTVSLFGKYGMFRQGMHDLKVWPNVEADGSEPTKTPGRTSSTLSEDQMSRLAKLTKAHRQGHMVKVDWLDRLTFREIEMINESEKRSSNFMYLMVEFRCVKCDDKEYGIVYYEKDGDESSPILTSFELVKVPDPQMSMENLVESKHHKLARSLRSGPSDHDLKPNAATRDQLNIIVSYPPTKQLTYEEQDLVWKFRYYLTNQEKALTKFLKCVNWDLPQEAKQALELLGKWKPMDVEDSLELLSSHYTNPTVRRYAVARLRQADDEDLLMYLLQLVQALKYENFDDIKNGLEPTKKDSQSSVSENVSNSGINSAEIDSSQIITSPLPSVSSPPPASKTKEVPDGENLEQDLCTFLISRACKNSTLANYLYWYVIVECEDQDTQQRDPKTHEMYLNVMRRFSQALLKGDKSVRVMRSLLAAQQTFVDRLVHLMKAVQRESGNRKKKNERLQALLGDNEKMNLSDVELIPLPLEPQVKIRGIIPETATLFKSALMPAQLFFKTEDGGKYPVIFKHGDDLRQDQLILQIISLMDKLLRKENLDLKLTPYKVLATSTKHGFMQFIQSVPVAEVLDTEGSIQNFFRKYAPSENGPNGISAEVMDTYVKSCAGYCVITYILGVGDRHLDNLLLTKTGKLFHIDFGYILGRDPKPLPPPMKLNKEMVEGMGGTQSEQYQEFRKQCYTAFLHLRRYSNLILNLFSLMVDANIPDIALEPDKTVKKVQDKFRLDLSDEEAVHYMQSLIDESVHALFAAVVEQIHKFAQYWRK", "test": "Human VPS34 enzyme assay (Adapta TR-FRET ADP detection)", "format": "biochemical", "parameters": "Percent Inhibition: dose or concentration left out as unconfirmed", "conditions": "not given", "units": {"Percent Inhibition": "%"}, "values": [
      {"compound": "CCc1c(-c2ccnc(Nc3ccnc(C)n3)c2)cnc(Cl)c1NS(=O)(=O)c1ccc(F)cc1F", "note": "[Compound I-259, N-{6-chloro-4-ethyl-2′-[(2-methylpyrimidin-4-yl)amino]-3,4′-bipyridin-5-yl}-2,4-difluorobenzenesulfonamide]", "Percent Inhibition": 79},
      {"compound": "Cc1nccc(Nc2cc(-c3cnc(N)c(C(=O)N(C)C45CC(C4)C5)c3)ccn2)n1", "note": "[Compound I-277, 6-amino-N-(bicyclo[1.1.1]pent-1-yl)-N-methyl-2′-[(2-methylpyrimidin-4-yl)amino]-3,4′-bipyridine-5-carboxamide]", "Percent Inhibition": 100},
      {"compound": "Cc1c(-c2ccnc(N)c2)cnc(Cl)c1NS(=O)(=O)c1ccc(F)cc1F", "note": "[Compound I-287, N′-(2′-amino-6-chloro-4-methyl-3,4′-bipyridin-5-yl)-2,4-difluorobenzenesulfonamide]", "Percent Inhibition": 91}
    ]},
    {"target": "human VPS34 (Homo sapiens (Human), UniProt Q8NEB9)", "test": "Human VPS34 enzyme assay (Adapta TR-FRET ADP detection)", "format": "biochemical", "parameters": "Percent Inhibition: dose or concentration left out as unconfirmed", "conditions": "IC50 range class", "values": [
      {"compound": "Cc1nccc(Nc2cc(-c3cnc(C)c(NC(=O)c4ccc(F)cc4F)c3)ccn2)n1", "note": "[Compound I-249, 2,4-difluoro-N-{6-methyl-2′-[(2-methylpyrimidin-4-yl)amino]-3,4′-bipyridin-5-yl}benzamide]", "pIC50": "7.00 to 7.30"},
      {"compound": "CC(=O)Nc1cc(-c2cnc(Cl)c(NS(=O)(=O)c3ccc(F)cc3F)c2C)c(C)cn1", "note": "[Compound I-250, N-(6-chloro-5-{[(2,4-difluorophenyl)sulfonyl]amino}-4,5′-dimethyl 3,4′-bipyridin-2′-yl)acetamide]", "pIC50": "7.30 to 8.00"},
      {"compound": "CC(=O)Nc1cc(-c2cnc(Cl)c(NS(=O)(=O)c3ccccc3F)c2C)ccn1", "note": "[Compound I-251, N-(6-chloro-5-{[(2-fluorophenyl)sulfonyl]amino}-4-methyl-3,4′-bipyridin-2′-yl)acetamide]", "pIC50": "7.30 to 8.00"},
      {"compound": "COc1ncc(-c2ccnc(Nc3ccnc(C)n3)c2)cc1C(=O)N(C)c1ccc(F)cc1F", "note": "[Compound I-252, N-(2,4-difluorophenyl)-6-methoxy-N-methyl-2′-[(2-methylpyrimidin-4-yl)amino]-3,4′-bipyridine-5-carboxamide]", "pIC50": "7.30 to 8.00"},
      {"compound": "Cc1nccc(Nc2cc(-c3cnc(C)c(C(=O)O)c3)ccn2)n1", "note": "[Compound I-253, 6-methyl-2′-((2-methylpyrimidin-4-yl)amino)-[3,4′-bipyridine]-5-carboxylic acid]", "pIC50": "7.30 to 8.00"},
      {"compound": "Cc1c(-c2ccnc(NC(=O)C3CC3(F)F)c2)cnc(Cl)c1NS(=O)(=O)c1ccc(F)cc1F", "note": "(stereo not shown) [Compound I-254, N-(6-chloro-5-{[(2,4-difluorophenyl)sulfonyl]amino}-4-methyl-3,4′-bipyridin-2′-yl)-2,2-difluorocyclopropanecarboxamide]", "pIC50": "7.30 to 8.00"},
      {"compound": "COC(=O)Nc1cc(-c2cnc(Cl)c(NS(=O)(=O)c3ccc(F)cc3F)c2C)ccn1", "note": "[Compound I-255, methyl (6-chloro-5-{[(2,4-difluorophenyl)sulfonyl]amino}-4-methyl-3,4′-bipyridin-2′-yl)carbamate]", "pIC50": "> 8.00"},
      {"compound": "CNc1c(Cl)ncc(-c2ccnc(Nc3ccnc(C)n3)c2)c1C", "note": "[Compound I-256, 6-chloro-N-5-4-dimethyl-N-2-(2-methylpyrimidin-4-yl)-3,4′-bipyridine-2′,5-diamine]", "pIC50": "7.30 to 8.00"},
      {"compound": "CC(=O)Nc1cc(-c2cnc(C)c(NS(=O)(=O)N3CCC3)c2)ccn1", "note": "[Compound I-257, N-{5-[(azetidin-1-ylsulfonyl)amino]-6-methyl-3,4′-bipyridin-2′-yl}acetamide]", "pIC50": "7.30 to 8.00"},
      {"compound": "CC(=O)Nc1cc(-c2cc(NS(=O)(=O)c3ccc(F)cc3F)c(C)[n+]([O-])c2)ccn1", "note": "[Compound I-258, N-[4-(5-{[(2,4-difluorophenyl)sulfonyl]amino}-6-methyl-1-oxidopyridin-3-yl)pyridin-2-yl]acetamide]", "pIC50": "7.30 to 8.00"},
      {"compound": "CCc1c(-c2ccnc(Nc3ccnc(C)n3)c2)cnc(Cl)c1NS(=O)(=O)c1ccc(F)cc1F", "note": "[Compound I-259, N-{6-chloro-4-ethyl-2′-[(2-methylpyrimidin-4-yl)amino]-3,4′-bipyridin-5-yl}-2,4-difluorobenzenesulfonamide]", "pIC50": "> 8.00"},
      {"compound": "CC(=O)Nc1cc(-c2cnc(C)c(NS(=O)(=O)N(C)C)c2C)ccn1", "note": "[Compound I-260, N-{5-[(dimethylsulfamoyl)amino]-4,6-dimethyl-3,4′-bipyridin-2′-yl}acetamide]", "pIC50": "7.30 to 8.00"},
      {"compound": "Cc1nccc(Nc2cc(-c3cnc(C)c(C(=O)N4CCCCC4)c3)ccn2)n1", "note": "[Compound I-262, [6-methyl-2′-[(2-methylpyrimidin-4-yl)amino]-3,4′-bipyridin-5-yl](piperidin-1-yl)methanone]", "pIC50": "7.30 to 8.00"},
      {"compound": "Cc1ncc(-c2ccnc(-n3cnc4c(C)nccc43)c2)cc1NS(=O)(=O)N(C)C", "note": "[Compound I-263, N,N-dimethyl-N′-[6-methyl-2′-(4-methyl-1H-imidazol[4,5-c]pyridin-1-yl)-3,4′-bipyridin-5-yl]sulfuric diamide]", "pIC50": "< 7.00"},
      {"compound": "Cc1c(-c2ccnc(Nc3ccnc(-c4ccccc4)n3)c2)cnc(Cl)c1NS(=O)(=O)c1ccc(F)cc1F", "note": "[Compound I-264, N-{6-chloro-4-methyl-2′-[(2-phenylpyrimidin-4-yl)amino]-3,4′-bipyridin-5-yl}-2,4-difluorobenzenesulfonamide]", "pIC50": "> 8.00"},
      {"compound": "Cc1ncc(-c2ccnc(Nc3ncccn3)c2)cc1NS(=O)(=O)c1ccc(F)cc1F", "note": "[Compound I-265, 2,4-difluoro-N-[6-methyl-2′-(pyrimidin-2-ylamino)3,4′-bipyridin-5-yl]benzenesulfonamide]", "pIC50": "> 8.00"},
      {"compound": "Cc1nccc(Nc2cc(-c3cnc(C)c(C(=O)N(C)C)c3)ccn2)n1", "note": "[Compound I-266, N,N,6-trimethyl-2′-[(2-methylpyrimidin-4-yl)amino]-3,4′-bipyridine-5-carboxamide]", "pIC50": "7.30 to 8.00"},
      {"compound": "COc1ncc(-c2ccnc(NC(C)=O)c2)c(C)c1NS(=O)(=O)N(C)C", "note": "[Compound I-268, N-{5-[(dimethylsulfamoyl)amino]-6-methoxy-4-methyl-3,4′-bipyridin-2′-yl}acetamide]", "pIC50": "< 7.00"},
      {"compound": "CC(=O)Nc1cc(-c2cnc(C)c(NS(=O)(=O)N3CCN(C)CC3)c2)ccn1", "note": "[Compound I-269, N-(6-methyl-5-{[(4-methylpiperazin-1-yl)sulfonyl]amino}-3,4′-bipyridin-2′-yl)acetamide]", "pIC50": "7.30 to 8.00"},
      {"compound": "Cc1ncc(-c2ccnc(Nc3nc4ccccc4s3)c2)cc1NS(=O)(=O)c1ccc(F)cc1F", "note": "[Compound I-271, N-[2′-(1,3-benzothiazol-2-ylamino)-6-methyl-3,4′-bipyridin-5-yl]-2,4-difluorobenzenesulfonamide]", "pIC50": "7.30 to 8.00"},
      {"compound": "Cc1cc(Nc2cc(-c3cnc(Cl)c(NS(=O)(=O)c4ccc(F)cc4F)c3C)ccn2)ccn1", "note": "[Compound I-272, N-{6-chloro-4-methyl-2′-[(2-methylpyridin-4-yl)amino]-3,4′-bipyridin-5-yl}-2,4-difluorobenzenesulfonamide]", "pIC50": "7.00 to 7.30"},
      {"compound": "CCN(C)S(=O)(=O)Nc1cc(-c2ccnc(NC(C)=O)c2)cnc1C", "note": "[Compound I-273, N-(5-{[ethyl(methyl)sulfamoyl]amino}-6-methyl-3,4′-bipyridin-2′-yl)acetamide]", "pIC50": "> 8.00"},
      {"compound": "CC(=O)Nc1cc(-c2cnc(C)c(NS(=O)(=O)N3CCCC3)c2)ccn1", "note": "[Compound I-274, N-{6-methyl-5-[(pyrrolidin-1-ylsulfonyl)amino]-3,4′-bipyridin-2′-yl}acetamide]", "pIC50": "7.30 to 8.00"},
      {"compound": "Cc1nccc(Nc2cc(-c3cnc(C)c(C(=O)N(C)C45CC(C4)C5)c3)ccn2)n1", "note": "[Compound I-275, N-(bicyclo[1.1.1]pent-1-yl)-N,6-dimethyl-2′-[(2-methylpyrimidin-4-yl)amino]-3,4′-bipyridine-5-carboxamide]", "pIC50": "7.30 to 8.00"},
      {"compound": "Cc1nccc(Nc2cc(-c3cnc(N)c(C(=O)N(C)C45CC(C4)C5)c3)ccn2)n1", "note": "[Compound I-277, 6-amino-N-(bicyclo[1.1.1]pent-1-yl)-N-methyl-2′-[(2-methylpyrimidin-4-yl)amino]-3,4′-bipyridine-5-carboxamide]", "pIC50": "> 8.00"},
      {"compound": "CCc1c(-c2ccnc(NC(=O)C3CC3)c2)cnc(Cl)c1NS(=O)(=O)c1ccc(F)cc1F", "note": "[Compound I-278, N-(6-chloro-5-{[(2,4-difluorophenyl)sulfonyl]amino}-4-ethyl-3,4′-bipyridin-2′-yl)cyclopropanecarboxamide]", "pIC50": "7.30 to 8.00"},
      {"compound": "Cc1nccc(Nc2cc(-c3cnc(O)c(S(=O)(=O)NC4CCC4)c3)ccn2)n1", "note": "[Compound I-279, N-cyclobutyl-6-hydroxy-2′-[(2-methylpyrimidin-4-yl)amino]3,4′-bipyridine-5-sulfonamide]", "pIC50": "7.30 to 8.00"},
      {"compound": "Cc1nccc(Nc2cc(-c3cnc(C)c(C(N)=O)c3)ccn2)n1", "note": "[Compound I-280, 6-methyl-2′-[(2-methylpyrimidin-4-yl)amino]-3,4′-bipyridine-5-carboxamide]", "pIC50": "< 7.00"},
      {"compound": "Cc1ncc(-c2ccnc(N)c2)cc1NS(=O)(=O)N(C)C", "note": "[Compound I-281, N′-(2′-amino-6-methyl-3,4′-bipyridin-5-yl)-N,N-dimethylsulfuric diamide]", "pIC50": "< 7.00"},
      {"compound": "Cc1c(-c2ccnc(Nc3ccncn3)c2)cnc(Cl)c1NS(=O)(=O)c1ccc(F)cc1F", "note": "[Compound I-282, N-[6-chloro-4-methyl-2′-(pyrimidin-4-ylamino)-3,4′-bipyridin-5-yl]-2,4-difluorobenzenesulfonamide]", "pIC50": "> 8.00"},
      {"compound": "CC(=O)Nc1cc(-c2cnc(N(C)C)c(C(=O)NC34CC(C3)C4)c2)ccn1", "note": "[Compound I-283, 2′-Acetamido-N-(bicyclo[1.1.1]pent-1-yl)-6-(dimethylamino)-3,4′-bipyridine-5-carboxamide]", "pIC50": "7.30 to 8.00"},
      {"compound": "CN(C)c1ncc(-c2ccnc(Nc3ccncn3)c2)cc1C(=O)N(C)C12CC(C1)C2", "note": "[Compound I-284, N-(bicyclo[1.1.1]pent-1-yl)-6-(dimethylamino)-N-methyl-2′-(pyrimidin-4-ylamino]-3,4′-bipyridine-5-carboxamide]", "pIC50": "7.30 to 8.00"},
      {"compound": "Cc1nccc(Nc2cc(-c3cnc(C)c(C(=O)NCC4CC4)c3)ccn2)n1", "note": "[Compound I-285, N-(cyclopropylmethyl)-6-methyl-2′-((2-methylpyrimidin-4-yl)amino)-[3,4′-bipyridine]-5-carboxamide]", "pIC50": "7.30 to 8.00"},
      {"compound": "Cc1nccc(Nc2cc(-c3cnc(C)c(NS(=O)(=O)N(C)C)c3)ccn2)n1", "note": "[Compound I-286, N,N-dimethyl-N′-{6-methyl-2′-[(2-methylpyrimidin-4-yl)amino]-3,4′-bipyridine-5-yl}sulfuric diamide]", "pIC50": "> 8.00"},
      {"compound": "Cc1c(-c2ccnc(N)c2)cnc(Cl)c1NS(=O)(=O)c1ccc(F)cc1F", "note": "[Compound I-287, N′-(2′-amino-6-chloro-4-methyl-3,4′-bipyridin-5-yl)-2,4-difluorobenzenesulfonamide]", "pIC50": "< 7.00"},
      {"compound": "Cc1nccc(Nc2cc(-c3cnc(C)c(N4CCCN(C)S4(=O)=O)c3)ccn2)n1", "note": "[Compound I-288, 6-methyl-5-(6-methyl-1,1-dioxido-1,2,6-thiadiazinan-2-yl)-N-(2-methylpyrimidin-4-yl)-3,4′-bipyridin-2′-amine]", "pIC50": "7.30 to 8.00"},
      {"compound": "Cc1nc(Nc2cc(-c3cnc(C)c(NS(=O)(=O)c4ccc(F)cc4F)c3)ccn2)ccc1C#N", "note": "[Compound I-289, N-{2′-[(5-cyano-6-methylpyridin-2-yl)amino]-6-methyl-3,4′-bipyridin-5-yl}-2,4-difluorobenzenesulfonamide]", "pIC50": "> 8.00"}
    ]}
  ]
}
